Reference: article PMC5384650 (Molecular microbiology, 2016)

Biological target: T1, threonine dehydratase (IlvA) (Salmonella enterica, UniProt P20506)
T1 sequence (P20506 1-514): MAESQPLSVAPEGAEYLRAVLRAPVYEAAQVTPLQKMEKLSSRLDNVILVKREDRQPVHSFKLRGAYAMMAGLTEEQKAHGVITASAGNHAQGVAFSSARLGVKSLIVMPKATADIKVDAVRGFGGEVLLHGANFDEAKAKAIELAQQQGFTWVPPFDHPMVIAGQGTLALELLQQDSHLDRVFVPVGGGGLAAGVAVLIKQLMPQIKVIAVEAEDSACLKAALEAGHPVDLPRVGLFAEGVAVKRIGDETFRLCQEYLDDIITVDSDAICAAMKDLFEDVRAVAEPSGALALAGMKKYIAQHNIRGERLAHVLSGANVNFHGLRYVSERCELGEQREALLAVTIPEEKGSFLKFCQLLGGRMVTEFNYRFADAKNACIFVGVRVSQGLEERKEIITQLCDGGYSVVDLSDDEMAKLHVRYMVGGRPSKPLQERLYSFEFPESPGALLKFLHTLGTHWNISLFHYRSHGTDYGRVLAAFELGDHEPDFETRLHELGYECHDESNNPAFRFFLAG
Format: biochemical

## NC[C@H](N)C(=O)O [Dap, L-2,3-diaminopropionate]
  Ki: 1700 µM
